Source: PubChem BioAssay AID1963847 (Molecular Pharmacology Branch, DTP, NCI, 2024)

Tested on: 415267-285-R-J2-PDC complex spheroid viability
Test: Anticancer human tumor 415267-285-R-J2-PDC patient-derived breast carcinoma cell line growth inhibition [POLQ]
Conditions: for IC50: curve of first compound; for viability, T/C: stronger effect = lower value; active = viability on the fitted dose curve at most 10% of control; inactive = the rest
Outline: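 PDC + HUVEC + MSC complex spheroids; POLQ inhibitors ± partner drugs; top conc. at/near clinical Cmax, else 10 microM (SN-38 1 microM), half-log dilutions; 37 degrees C, 5% CO2.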

[1] = second compound 0.0316 µM, first compound 0.0316 µM
[2] = second compound 0.0316 µM, first compound 0.1 µM
[3] = second compound 0.0316 µM, first compound 0.316 µM
[4] = second compound 0.0316 µM, first compound 1 µM
[5] = second compound 0.0316 µM, first compound 3.16 µM
[6] = second compound 0.0316 µM, first compound 10 µM
[7] = second compound 0.1 µM, first compound 0.0316 µM
[8] = second compound 0.1 µM, first compound 0.1 µM
[9] = second compound 0.1 µM, first compound 0.316 µM
[10] = second compound 0.1 µM, first compound 1 µM
[11] = second compound 0.1 µM, first compound 3.16 µM
[12] = second compound 0.1 µM, first compound 10 µM
[13] = second compound 0.316 µM, first compound 0.0316 µM
[14] = second compound 0.316 µM, first compound 0.1 µM
[15] = second compound 0.316 µM, first compound 0.316 µM
[16] = second compound 0.316 µM, first compound 1 µM
[17] = second compound 0.316 µM, first compound 3.16 µM
[18] = second compound 0.316 µM, first compound 10 µM
[19] = second compound 1 µM, first compound 0.0316 µM
[20] = second compound 1 µM, first compound 0.1 µM
[21] = second compound 1 µM, first compound 0.316 µM
[22] = second compound 1 µM, first compound 1 µM
[23] = second compound 1 µM, first compound 3.16 µM
[24] = second compound 1 µM, first compound 10 µM
[25] = second compound 3.16 µM, first compound 0.0316 µM
[26] = second compound 3.16 µM, first compound 0.1 µM
[27] = second compound 3.16 µM, first compound 0.316 µM
[28] = second compound 3.16 µM, first compound 1 µM
[29] = second compound 3.16 µM, first compound 3.16 µM
[30] = second compound 3.16 µM, first compound 10 µM
[31] = second compound 10 µM, first compound 0.0316 µM
[32] = second compound 10 µM, first compound 0.1 µM
[33] = second compound 10 µM, first compound 0.316 µM
[34] = second compound 10 µM, first compound 1 µM
[35] = second compound 10 µM, first compound 3.16 µM
[36] = second compound 10 µM, first compound 10 µM
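Also: spheroids exposed to compounds for one week before readout.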
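For viability, T/C in this document: luminescence used as stand-in measure of viable cells; 100% = DMSO vehicle control viability.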

CC(C)n1c(=O)n(C)c2cnc3cc(F)c(-c4ccc(OCCCN5CCCCC5)nc4)cc3c21 + Nc1ccc(C#CCN(C(=O)Cc2ncc(C(F)(F)F)cc2C(F)(F)F)c2ccc(F)cc2)nn1
inactive: viability, T/C [1] 102% | viability, T/C [2] 107% | viability, T/C [3] 105% | viability, T/C [4] 122% | viability, T/C [5] 104% | viability, T/C [6] 103% | viability, T/C [7] 103% | viability, T/C [8] 105% | viability, T/C [9] 108% | viability, T/C [10] 96.1% | viability, T/C [11] 101% | viability, T/C [12] 97.6% | viability, T/C [13] 102% | viability, T/C [14] 113% | viability, T/C [15] 101% | viability, T/C [16] 105% | viability, T/C [17] 103% | viability, T/C [18] 108% | viability, T/C [19] 102% | viability, T/C [20] 105% | viability, T/C [21] 96.4% | viability, T/C [22] 101% | viability, T/C [23] 111% | viability, T/C [24] 108% | viability, T/C [25] 101% | viability, T/C [26] 107% | viability, T/C [27] 110% | viability, T/C [28] 111% | viability, T/C [29] 108% | viability, T/C [30] 115% | viability, T/C [31] 108% | viability, T/C [32] 109% | viability, T/C [33] 117% | viability, T/C [34] 126% | viability, T/C [35] 106% | viability, T/C [36] 117%
> 10 µM: IC50 (second compound 0.0316 µM) | IC50 (second compound 0.1 µM) | IC50 (second compound 0.316 µM) | IC50 (second compound 1 µM) | IC50 (second compound 3.16 µM) | IC50 (second compound 10 µM)

COc1ccc([C@@H](O)c2cc(-c3ncnc4cc(N5CCOCC5)ccc34)c(F)cc2Cl)nn1 + COC1C(OC(N)=O)C(O)C(Oc2ccc3c(O)c(NC(=O)c4ccc(O)c(CC=C(C)C)c4)c(=O)oc3c2C)OC1(C)C
8.15 µM: IC50 (second compound 3.16 µM)
7.09 µM: IC50 (second compound 0.316 µM)
9.75 µM: IC50 (second compound 10 µM)
8.63 µM: IC50 (second compound 0.0316 µM)
9.18 µM: IC50 (second compound 1 µM)
8.03 µM: IC50 (second compound 0.1 µM)
inactive: viability, T/C [1] 104% | viability, T/C [2] 92.5% | viability, T/C [3] 97.9% | viability, T/C [4] 89% | viability, T/C [5] 78.4% | viability, T/C [6] 45.3% | viability, T/C [7] 95.3% | viability, T/C [8] 104% | viability, T/C [9] 97.9% | viability, T/C [10] 106% | viability, T/C [11] 99.5% | viability, T/C [12] 38.3% | viability, T/C [13] 101% | viability, T/C [14] 98% | viability, T/C [15] 101% | viability, T/C [16] 87.7% | viability, T/C [17] 77.9% | viability, T/C [18] 38.3% | viability, T/C [19] 94.3% | viability, T/C [20] 97.2% | viability, T/C [21] 97.1% | viability, T/C [22] 100% | viability, T/C [23] 76.2% | viability, T/C [24] 48% | viability, T/C [25] 105% | viability, T/C [26] 108% | viability, T/C [27] 97.1% | viability, T/C [28] 103% | viability, T/C [29] 79.7% | viability, T/C [30] 43.5% | viability, T/C [31] 102% | viability, T/C [32] 97.8% | viability, T/C [33] 98% | viability, T/C [34] 96.3% | viability, T/C [35] 90.9% | viability, T/C [36] 48.8%

CCc1c2c(nc3ccc(O)cc13)-c1cc3c(c(=O)n1C2)COC(=O)[C@]3(O)CC + Cc1cccc(N(C)C(=O)C2C(O)CCN2c2nc(C)cc(C(F)(F)F)c2C#N)c1
< 0.00316 µM: IC50 (second compound 0.0316 µM) | IC50 (second compound 0.1 µM) | IC50 (second compound 0.316 µM) | IC50 (second compound 1 µM) | IC50 (second compound 3.16 µM) | IC50 (second compound 10 µM)
inactive: viability, T/C (second compound 0.0316 µM, first compound 0.00316 µM) 27.1% | viability, T/C (second compound 0.0316 µM, first compound 0.01 µM) 11.3% | viability, T/C (second compound 0.1 µM, first compound 0.00316 µM) 26.4% | viability, T/C (second compound 0.1 µM, first compound 0.01 µM) 10% | viability, T/C (second compound 0.316 µM, first compound 0.00316 µM) 32.5% | viability, T/C (second compound 0.316 µM, first compound 0.01 µM) 11.6% | viability, T/C (second compound 1 µM, first compound 0.00316 µM) 34% | viability, T/C (second compound 1 µM, first compound 0.01 µM) 9.41% | viability, T/C (second compound 3.16 µM, first compound 0.00316 µM) 34.7% | viability, T/C (second compound 10 µM, first compound 0.00316 µM) 29.4% | viability, T/C (second compound 10 µM, first compound 0.01 µM) 10.3%
active: viability, T/C [1] 5.73% | viability, T/C [2] 3.97% | viability, T/C [3] 3.18% | viability, T/C [4] 1.44% | viability, T/C [7] 5.47% | viability, T/C [8] 4.21% | viability, T/C [9] 3.59% | viability, T/C [10] 1.35% | viability, T/C [13] 5.27% | viability, T/C [14] 3.49% | viability, T/C [15] 3.51% | viability, T/C [16] 1.32% | viability, T/C [19] 6.43% | viability, T/C [20] 4.75% | viability, T/C [21] 3.42% | viability, T/C [22] 0.75% | viability, T/C (second compound 3.16 µM, first compound 0.01 µM) 8.16% | viability, T/C [25] 6.7% | viability, T/C [26] 4.46% | viability, T/C [27] 4.26% | viability, T/C [28] 1.28% | viability, T/C [31] 6.91% | viability, T/C [32] 3.72% | viability, T/C [33] 3.54% | viability, T/C [34] 1.1%

CCc1cc2c(N3CCc4c(cc(Cn5ccnc5)cc4-c4cn(C)nc4C(F)(F)F)C3=O)ccnc2c(OC)n1 + COC1C(OC(N)=O)C(O)C(Oc2ccc3c(O)c(NC(=O)c4ccc(O)c(CC=C(C)C)c4)c(=O)oc3c2C)OC1(C)C
> 10 µM: IC50 (second compound 0.0316 µM) | IC50 (second compound 0.1 µM) | IC50 (second compound 0.316 µM) | IC50 (second compound 1 µM) | IC50 (second compound 3.16 µM) | IC50 (second compound 10 µM)
inactive: viability, T/C [1] 92.8% | viability, T/C [2] 74.9% | viability, T/C [3] 88% | viability, T/C [4] 91.1% | viability, T/C [5] 83% | viability, T/C [6] 66.3% | viability, T/C [7] 89.4% | viability, T/C [8] 87% | viability, T/C [9] 83.2% | viability, T/C [10] 83.3% | viability, T/C [11] 77.6% | viability, T/C [12] 67.6% | viability, T/C [13] 89.8% | viability, T/C [14] 90.9% | viability, T/C [15] 71.5% | viability, T/C [16] 81% | viability, T/C [17] 75.3% | viability, T/C [18] 71.8% | viability, T/C [19] 88.6% | viability, T/C [20] 89.6% | viability, T/C [21] 79.5% | viability, T/C [22] 74.9% | viability, T/C [23] 79.5% | viability, T/C [24] 63.2% | viability, T/C [25] 97.4% | viability, T/C [26] 83.8% | viability, T/C [27] 78.8% | viability, T/C [28] 84.5% | viability, T/C [29] 73.5% | viability, T/C [30] 70.5% | viability, T/C [31] 99.2% | viability, T/C [32] 89.8% | viability, T/C [33] 84.9% | viability, T/C [34] 77.5% | viability, T/C [35] 73.6% | viability, T/C [36] 72.2%
